Assay results taken from article PMC5241706, “Biochemical and Structural Characterization of Selective Allosteric Inhibitors of the Plasmodium falciparum Drug Target, Prolyl-tRNA-synthetase” (ACS Infectious Diseases, 2016).
Like-named read-outs stand apart in the source and are kept apart here. Each block holds one compound with its values, some of them ahead of it.

Experiments:
[1] = tested on: Plasmodium falciparum strain 3D7; assay: Plasmodium falciparum growth inhibition, SYBR green fluorescence; format: cell-based; conditions: 3D7, growth inhibition, read-out: Pf (3D7) EC50
PfProRS [2] = target: T1, PfProRS (Plasmodium falciparum, UniProt Q8I5R7); assay: biochemical; format: biochemical; conditions: for IC50: read-out: Pf ProRS IC50
T1 construct: B2, AA7–746 (minus 6 amino acids, or 99% of the ORF); made in house; host or cells: E. coli BL21(DE3)R3 Rosetta Oxford
T1 sequence (Q8I5R7 7-746): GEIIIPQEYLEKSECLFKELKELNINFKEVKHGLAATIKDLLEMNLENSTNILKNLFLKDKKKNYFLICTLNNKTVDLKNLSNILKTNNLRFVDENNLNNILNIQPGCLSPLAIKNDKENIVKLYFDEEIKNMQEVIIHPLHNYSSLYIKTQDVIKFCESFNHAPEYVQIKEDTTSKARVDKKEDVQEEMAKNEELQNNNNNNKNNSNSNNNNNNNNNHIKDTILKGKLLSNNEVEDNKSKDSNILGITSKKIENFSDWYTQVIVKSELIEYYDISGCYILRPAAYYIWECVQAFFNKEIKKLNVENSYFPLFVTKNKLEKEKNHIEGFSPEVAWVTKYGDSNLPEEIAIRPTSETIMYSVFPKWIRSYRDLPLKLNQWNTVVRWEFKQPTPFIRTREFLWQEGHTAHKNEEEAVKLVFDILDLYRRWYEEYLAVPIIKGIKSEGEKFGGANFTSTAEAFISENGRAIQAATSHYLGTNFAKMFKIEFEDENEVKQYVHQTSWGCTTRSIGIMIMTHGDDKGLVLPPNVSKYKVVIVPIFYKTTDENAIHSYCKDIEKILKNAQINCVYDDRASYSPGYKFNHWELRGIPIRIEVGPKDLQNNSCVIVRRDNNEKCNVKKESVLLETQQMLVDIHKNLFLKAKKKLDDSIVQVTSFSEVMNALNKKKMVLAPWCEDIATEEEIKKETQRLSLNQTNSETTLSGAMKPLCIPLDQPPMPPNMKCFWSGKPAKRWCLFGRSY

HsProRS = target: T2, HsProRS (Homo sapiens, UniProt P07814); assay: luciferase ATP depletion assay, counter-screen; format: biochemical; conditions: for inhibition at 187.5 µM: at 187.50 μM
T2 construct: made in house
T2 sequence (P07814 1007-1512 limits assumed): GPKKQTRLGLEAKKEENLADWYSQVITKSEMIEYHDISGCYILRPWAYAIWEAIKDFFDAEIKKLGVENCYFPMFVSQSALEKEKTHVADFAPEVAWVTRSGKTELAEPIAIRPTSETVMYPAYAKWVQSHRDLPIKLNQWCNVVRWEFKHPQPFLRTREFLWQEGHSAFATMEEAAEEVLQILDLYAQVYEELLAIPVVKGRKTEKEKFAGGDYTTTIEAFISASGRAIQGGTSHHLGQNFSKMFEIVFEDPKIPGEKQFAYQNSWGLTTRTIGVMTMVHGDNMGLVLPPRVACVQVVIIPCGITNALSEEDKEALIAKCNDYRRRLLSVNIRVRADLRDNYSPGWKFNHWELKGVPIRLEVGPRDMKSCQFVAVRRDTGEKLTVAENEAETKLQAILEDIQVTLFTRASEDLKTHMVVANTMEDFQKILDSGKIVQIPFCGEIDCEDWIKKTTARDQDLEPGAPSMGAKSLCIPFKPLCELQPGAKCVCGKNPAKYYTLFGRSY

PfProRS [3] = target: T1, PfProRS; assay: luciferase ATP depletion assay, HTS format; format: biochemical
[4] = read-out: Percentage inhibition Pf ProRS
[5] = read-out: Percentage inhibition Hs ProRS
[6] = at 1.46 μM (750 μM series), read-out: Percentage inhibition Hs ProRS

PfProRS activity in words (PfProRS [2]; SAR text to Table 1): inactive
IC50 (PfProRS [2]): > 50 µM
Structure (SMILES): Cn1nc(C(F)(F)F)c(-c2ccc(F)cc2)c1N [Compound 2]
EC50 [1]: 5 µM

IC50 (PfProRS [2]): > 50 µM
Structure (SMILES): Cn1ncc(-c2ccc(F)cc2)c1NC(=O)Nc1ccc(F)cc1 [Compound 18]
EC50 [1]: 27 µM

IC50 (PfProRS [2]): 6 µM
Structure (SMILES): Cn1nc(CC#N)c(-c2ccc(F)cc2)c1NC(=O)Nc1ccc(F)cc1 [Compound 23]
EC50 [1]: 4 µM

Structure (SMILES): Cc1ccc(-c2oc(N)c(C#N)c2-c2ccc(C)cc2)cc1 [SJ000368256]
inhibition at 0.12 µM (HsProRS; at 0.12 μM (30 μM series), read-out: Percentage inhibition Hs ProRS): -0.1%
inhibition at 0.37 µM (HsProRS; at 0.37 μM, read-out: Percentage inhibition Hs ProRS): 0.01%
inhibition at 1.46 µM (HsProRS; at 1.46 μM (30 μM series), read-out: Percentage inhibition Hs ProRS): -0.15%
inhibition at 3.33 µM (HsProRS; at 3.33 μM, read-out: Percentage inhibition Hs ProRS): 0.06%
inhibition at 10 µM (HsProRS; at 10.00 μM, read-out: Percentage inhibition Hs ProRS): 0.08%
inhibition at 30 µM (HsProRS; at 30.00 μM, read-out: Percentage inhibition Hs ProRS): 0.41%
inhibition at 0.12 µM (PfProRS [3]; [4]): -0.29%
inhibition at 0.37 µM (PfProRS [3]; [4]): -0.09%
inhibition at 1.46 µM (PfProRS [3]; [4]): -0.33%
inhibition at 3.33 µM (PfProRS [3]; [4]): 0.44%
inhibition at 10 µM (PfProRS [3]; [4]): 0.96%
inhibition at 30 µM (PfProRS [3]; [4]): 39.7%

Structure (SMILES): COc1ccc(Cl)cc1C(=O)NCCc1ccc(S(=O)(=O)NC(=O)NC2CCCCC2)cc1 [glyburide]
IC50 (HsProRS): > 700 µM
inhibition at 0.73 µM (HsProRS; [5]): 0.05%
inhibition at 1.46 µM (HsProRS; [6]): 0.03%
inhibition at 2.93 µM (HsProRS; [5]): -0.04%
inhibition at 5.86 µM (HsProRS; [5]): 0.29%
inhibition at 11.72 µM (HsProRS; [5]): 0.01%
inhibition at 23.44 µM (HsProRS; [5]): 0.12%
inhibition at 46.88 µM (HsProRS; [5]): 0.36%
inhibition at 93.75 µM (HsProRS; [5]): 1.41%
inhibition at 187.5 µM (HsProRS; [5]): 4.93%
inhibition at 375 µM (HsProRS; [5]): 15.1%
inhibition at 750 µM (HsProRS; [5]): 36.1%
inhibitory activity for HsProRS (HsProRS; up to the limit of solubility (>1 mM)): < 40%
IC50 (PfProRS [3]; PfProRS IC50, 75 nM ProRS, 60 μM proline, 6 μM ATP, 400 μg/mL yeast tRNA, 2 h 37 °C): 34 µM
inhibition at 0.73 µM (PfProRS [3]; [4]): 1.32%
inhibition at 1.46 µM (PfProRS [3]; [4]): 1.82%
inhibition at 2.93 µM (PfProRS [3]; [4]): 6.24%
inhibition at 5.86 µM (PfProRS [3]; [4]): 12.4%
inhibition at 11.72 µM (PfProRS [3]; [4]): 23.8%
inhibition at 23.44 µM (PfProRS [3]; [4]): 39.7%
inhibition at 46.88 µM (PfProRS [3]; [4]): 60%
inhibition at 93.75 µM (PfProRS [3]; [4]): 81.4%
inhibition at 187.5 µM (PfProRS [3]; [4]): 87%
inhibition at 375 µM (PfProRS [3]; [4]): 94%
inhibition at 750 µM (PfProRS [3]; [4]): 102%

Structure (SMILES): Cc1c(Nc2ncccc2C(=O)O)cccc1C(F)(F)F [flunixin meglumine]
inhibition at 0.73 µM (HsProRS; [5]): 0.21%
inhibition at 1.46 µM (HsProRS; [6]): 0.19%
inhibition at 2.93 µM (HsProRS; [5]): 0.2%
inhibition at 5.86 µM (HsProRS; [5]): 0.17%
inhibition at 11.72 µM (HsProRS; [5]): 0.37%
inhibition at 23.44 µM (HsProRS; [5]): 0.52%
inhibition at 46.88 µM (HsProRS; [5]): 0.27%
inhibition at 93.75 µM (HsProRS; [5]): -0.02%
inhibition at 187.5 µM (HsProRS; [5]): 0.03%
inhibition at 375 µM (HsProRS; [5]): 0.43%
inhibition at 750 µM (HsProRS; [5]): 1.37%
inhibition at 0.73 µM (PfProRS [3]; [4]): 0.6%
inhibition at 1.46 µM (PfProRS [3]; [4]): -0.28%
inhibition at 2.93 µM (PfProRS [3]; [4]): -0.7%
inhibition at 5.86 µM (PfProRS [3]; [4]): -0.41%
inhibition at 11.72 µM (PfProRS [3]; [4]): 1.63%
inhibition at 23.44 µM (PfProRS [3]; [4]): 2.17%
inhibition at 46.88 µM (PfProRS [3]; [4]): 11.4%
inhibition at 93.75 µM (PfProRS [3]; [4]): 30.7%
inhibition at 187.5 µM (PfProRS [3]; [4]): 62%
inhibition at 375 µM (PfProRS [3]; [4]): 87.1%
inhibition at 750 µM (PfProRS [3]; [4]): 99.8%

Structure (SMILES): N#CC(c1ccc(Cl)cc1)c1c(Cl)cc(-n2ncc(=O)[nH]c2=O)cc1Cl (stereo not shown) [diclazuril]
inhibition at 0.49 µM (HsProRS; at 0.49 μM, read-out: Percentage inhibition Hs ProRS): 0.05%
inhibition at 0.98 µM (HsProRS; at 0.98 μM, read-out: Percentage inhibition Hs ProRS): -0.02%
inhibition at 1.95 µM (HsProRS; at 1.95 μM, read-out: Percentage inhibition Hs ProRS): 0.08%
inhibition at 3.91 µM (HsProRS; at 3.91 μM, read-out: Percentage inhibition Hs ProRS): 0.28%
inhibition at 7.81 µM (HsProRS; at 7.81 μM, read-out: Percentage inhibition Hs ProRS): 0.42%
inhibition at 15.63 µM (HsProRS; at 15.63 μM, read-out: Percentage inhibition Hs ProRS): 0.09%
inhibition at 31.25 µM (HsProRS; at 31.25 μM, read-out: Percentage inhibition Hs ProRS): 0.4%
inhibition at 62.5 µM (HsProRS; at 62.50 μM, read-out: Percentage inhibition Hs ProRS): 0.07%
inhibition at 125 µM (HsProRS; at 125 μM, read-out: Percentage inhibition Hs ProRS): 0.68%
inhibition at 250 µM (HsProRS; at 250 μM, read-out: Percentage inhibition Hs ProRS): 5.06%
inhibition at 500 µM (HsProRS; at 500 μM, read-out: Percentage inhibition Hs ProRS): 9.51%
inhibition at 0.49 µM (PfProRS [3]; [4]): 0.21%
inhibition at 0.98 µM (PfProRS [3]; [4]): -1.18%
inhibition at 1.95 µM (PfProRS [3]; [4]): -0.74%
inhibition at 3.91 µM (PfProRS [3]; [4]): -0.59%
inhibition at 7.81 µM (PfProRS [3]; [4]): 2.35%
inhibition at 15.63 µM (PfProRS [3]; [4]): 2.75%
inhibition at 31.25 µM (PfProRS [3]; [4]): 7.77%
inhibition at 62.5 µM (PfProRS [3]; [4]): 19.5%
inhibition at 125 µM (PfProRS [3]; [4]): 43%
inhibition at 250 µM (PfProRS [3]; [4]): 73.7%
inhibition at 500 µM (PfProRS [3]; [4]): 80.2%
